Where “and” joins values, the source holds several entries; their conditions need not be identical. Identical values can stand only once. Toxic doses and inconclusive results are not listed. Rule as the data show it: active = T/C of 150% or more; inactive = T/C below 125%.
Test system: L1210 leukemia ip in BDF1 mice, survival T/C
Assay: NCI In Vivo Anticancer Drug Screen. Data for tumor model L1210 Leukemia (intraperitoneal) in B6D2F1 (BDF1) mice
Details: higher = longer survival
Method in brief: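 Tumor was transplanted into mice, which were then dosed with test compound or vehicle alone. Survival was recorded for each group, and the treated figure was expressed relative to the control figure.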

[1] = endpoint: mean survival time, dose: 100.0 mg/kg/injection, schedule: Q01DX009 (ip), vehicle: Klucel (hydroxypropylcellulose) (HPC)
[2] = endpoint: mean survival time, dose: 200.0 mg/kg/injection, schedule: Q01DX009 (ip), vehicle: Klucel (hydroxypropylcellulose) (HPC)
[3] = endpoint: mean survival time, dose: 400.0 mg/kg/injection, schedule: Q01DX009 (ip), vehicle: Klucel (hydroxypropylcellulose) (HPC)
[4] = endpoint: mean survival time, dose: 50.0 mg/kg/injection, schedule: Q01DX001 (ip), vehicle: saline
[5] = endpoint: mean survival time, dose: 100.0 mg/kg/injection, schedule: Q01DX001 (ip), vehicle: saline
[6] = endpoint: mean survival time, dose: 200.0 mg/kg/injection, schedule: Q01DX001 (ip), vehicle: saline
[7] = endpoint: mean survival time, dose: 400.0 mg/kg/injection, schedule: Q01DX001 (ip), vehicle: saline
[8] = endpoint: mean survival time, dose: 100.0 mg/kg/injection, schedule: Q01DX009 (ip), vehicle: saline
[9] = endpoint: mean survival time, dose: 100.0 mg/kg/injection, schedule: Q04DX003 (ip), vehicle: Klucel (hydroxypropylcellulose) (HPC)
[10] = endpoint: mean survival time, dose: 200.0 mg/kg/injection, schedule: Q01DX009 (ip), vehicle: saline
[11] = endpoint: mean survival time, dose: 200.0 mg/kg/injection, schedule: Q04DX003 (ip), vehicle: Klucel (hydroxypropylcellulose) (HPC)
[12] = endpoint: mean survival time, dose: 400.0 mg/kg/injection, schedule: Q04DX003 (ip), vehicle: Klucel (hydroxypropylcellulose) (HPC)

Measured: T/C

C[N+](C)(C)CCCCCCCC[N+](C)(C)CCCCCCCCCC[N+](C)(C)CCCCCCCC[N+](C)(C)C
inactive: endpoint: mean survival time, dose: 23.0 micrograms/kg/injection, schedule: Q04DX003 (ip), vehicle: saline 97 % of control | endpoint: mean survival time, dose: 45.0 micrograms/kg/injection, schedule: Q04DX003 (ip), vehicle: saline 105 % of control | endpoint: mean survival time, dose: 90.0 micrograms/kg/injection, schedule: Q04DX003 (ip), vehicle: saline 103 % of control

O=C(Nc1cccc(C(F)(F)F)c1)Nc1nccs1
inactive: [1] 100 % of control | endpoint: mean survival time, dose: 100.0 mg/kg/injection, schedule: Q04DX002 (ip), vehicle: Klucel (hydroxypropylcellulose) (HPC) 94 % of control | [2] 115 % of control | endpoint: mean survival time, dose: 200.0 mg/kg/injection, schedule: Q04DX002 (ip), vehicle: Klucel (hydroxypropylcellulose) (HPC) 108 % of control | [3] 92 % of control | endpoint: mean survival time, dose: 400.0 mg/kg/injection, schedule: Q04DX002 (ip), vehicle: Klucel (hydroxypropylcellulose) (HPC) 89 % of control

CCOC(=O)c1cc(N(CCOS(C)(=O)=O)CCOS(C)(=O)=O)ccc1[N+](=O)[O-]
inactive: [4] 103 % of control | [5] 97 % of control | [6] 97 % of control | [7] 97 % of control

CC(=O)Nc1ccc(SSSc2ccc(NC(C)=O)cc2)cc1
inactive: endpoint: mean survival time, dose: 1.56 mg/kg/injection, schedule: Q01DX009 (ip), vehicle: water 100 % of control | endpoint: mean survival time, dose: 3.12 mg/kg/injection, schedule: Q01DX009 (ip), vehicle: water 92 % of control | endpoint: mean survival time, dose: 6.25 mg/kg/injection, schedule: Q01DX009 (ip), vehicle: water 96 % of control | endpoint: mean survival time, dose: 12.5 mg/kg/injection, schedule: Q01DX009 (ip), vehicle: water 91 % of control | endpoint: mean survival time, dose: 25.0 mg/kg/injection, schedule: Q01DX009 (ip), vehicle: water 94 % of control and 88 % of control | endpoint: mean survival time, dose: 200.0 mg/kg/injection, schedule: Q01DX009 (ip), vehicle: water 92 % of control

Nc1ccc2cc(S(=O)(=O)O)cc(S(=O)(=O)O)c2c1 (tested in a mixture with another compound)
inactive: endpoint: mean survival time, dose: 80.0 mg/kg/injection, schedule: Q01DX Z (ip), vehicle: saline 97 % of control | endpoint: mean survival time, dose: 170.0 mg/kg/injection, schedule: Q01DX Z (ip), vehicle: saline 96 % of control

Nc1nc(N)c2cc(S(=O)(=O)c3ccccc3)ccc2n1
inactive: endpoint: median survival time, dose: 25.0 mg/kg/injection, schedule: Q01DX009 (ip), vehicle: saline with Tween-80 110 % of control | endpoint: median survival time, dose: 400.0 mg/kg/injection, schedule: Q01DX009 (ip), vehicle: saline with Tween-80 108 % of control | endpoint: median survival time, dose: 800.0 mg/kg/injection, schedule: Q01DX009 (ip), vehicle: saline with Tween-80 117 % of control

CN1CCC(CSC(=O)C(O)(c2ccccc2)C2CCCCC2)C1 (stereo not given)
inactive: endpoint: mean survival time, dose: 75.0 mg/kg/injection, schedule: Q01DX001 (ip), vehicle: saline 97 % of control

CC(=O)/C(N=O)=C(/C)O
inactive: endpoint: mean survival time, dose: 50.0 mg/kg/injection, schedule: Q01DX009 (ip), vehicle: saline 111 % of control | [8] 105 % of control | [9] 91 % of control | [10] 104 % of control | [11] 93 % of control | endpoint: mean survival time, dose: 400.0 mg/kg/injection, schedule: Q01DX001 (ip), vehicle: saline with Tween-80 92 % of control | endpoint: mean survival time, dose: 400.0 mg/kg/injection, schedule: Q01DX009 (ip), vehicle: saline 111 % of control | [12] 87 % of control

Cc1c(Cl)cccc1NC(=O)Nc1ccccc1Cl
inactive: [1] 104 % of control | [9] 92 % of control | [2] 103 % of control | [11] 91 % of control | [3] 100 % of control | [12] 92 % of control

Cc1ccc(C)c(NC(=O)Nc2ccc(Nc3ccccc3)cc2)c1
inactive: [1] 88 % of control | [3] 91 % of control

Cc1ccc(C(=O)C=C(C(F)(F)F)C(F)(F)F)cc1
inactive: endpoint: mean survival time, dose: 6.25 mg/kg/injection, schedule: Q04DX003 (ip), vehicle: saline 94 % of control | endpoint: mean survival time, dose: 12.5 mg/kg/injection, schedule: Q04DX003 (ip), vehicle: saline 96 % of control | endpoint: mean survival time, dose: 25.0 mg/kg/injection, schedule: Q04DX003 (ip), vehicle: saline 103 % of control

CN(C)/C(=C\C(=O)c1ccccc1)c1ccccc1
inactive: endpoint: mean survival time, dose: 100.0 mg/kg/injection, schedule: Q04DX003 (ip), vehicle: saline with Tween-80 90 % of control | endpoint: mean survival time, dose: 400.0 mg/kg/injection, schedule: Q04DX003 (ip), vehicle: saline with Tween-80 86 % of control

CCc1cccc2c1C(=O)OC2=O
inactive: [8] 94 % of control | [10] 91 % of control

CSCCc1ccccn1
inactive: [4] 98 % of control | [5] 104 % of control | [6] 98 % of control | [7] 110 % of control

O=[N+]([O-])c1ccc(N2CCOCC2)cc1
inactive: [9] 95 % of control | [11] 100 % of control | [12] 105 % of control

CCC(C)(CC)c1ccc(O)c(C)c1
inactive: endpoint: mean survival time, dose: 100.0 mg/kg/injection, schedule: Q01DX009 (sc), vehicle: olive oil, sesame oil, peanut oil 104 % of control | endpoint: mean survival time, dose: 100.0 mg/kg/injection, schedule: Q04DX003 (sc), vehicle: olive oil, sesame oil, peanut oil 104 % of control | endpoint: mean survival time, dose: 200.0 mg/kg/injection, schedule: Q01DX009 (sc), vehicle: olive oil, sesame oil, peanut oil 112 % of control | endpoint: mean survival time, dose: 200.0 mg/kg/injection, schedule: Q04DX003 (sc), vehicle: olive oil, sesame oil, peanut oil 106 % of control | endpoint: mean survival time, dose: 400.0 mg/kg/injection, schedule: Q01DX009 (sc), vehicle: olive oil, sesame oil, peanut oil 101 % of control | endpoint: mean survival time, dose: 400.0 mg/kg/injection, schedule: Q04DX003 (sc), vehicle: olive oil, sesame oil, peanut oil 108 % of control

CCC1CN2CCc3cc(OC)c(OC)cc3C2CC1CC1c2cc(OC)c(OC)cc2CCN1C(=O)C1CCCN1C(=O)OCc1ccccc1 (stereo not given)
inactive: endpoint: mean survival time, dose: 50.0 mg/kg/injection, schedule: Q01DX001 (ip), vehicle: carboxymethylcellulose (CMC) 97 % of control | endpoint: mean survival time, dose: 100.0 mg/kg/injection, schedule: Q01DX001 (ip), vehicle: carboxymethylcellulose (CMC) 101 % of control | endpoint: mean survival time, dose: 200.0 mg/kg/injection, schedule: Q01DX001 (ip), vehicle: carboxymethylcellulose (CMC) 106 % of control | endpoint: mean survival time, dose: 400.0 mg/kg/injection, schedule: Q01DX001 (ip), vehicle: carboxymethylcellulose (CMC) 97 % of control

— PubChem BioAssay AID248 (DTP/NCI, 2004)
